Source: US10029014B2, “Synthesis of novel asymmetric bow-tie PAMAM dendrimer-based conjugates for tumor-targeting drug delivery” (priority 2013, dated 2018)
Like-named read-outs stand apart in the source and are kept apart here.

How the values were obtained:
MX-1 = experiment: Cytotoxicity assay, MTT method, MX-1 cells; conditions: read-out: Cytotoxicity (IC50, nM) MX-1
in vitro = conditions: human
ID-8 = experiment: Cytotoxicity assay, MTT method, ID-8 cells; conditions: read-out: Cytotoxicity (IC50, nM) ID-8
WI-38 = experiment: Cytotoxicity assay, MTT method, WI-38 cells; conditions: read-out: Cytotoxicity (IC50, nM) WI-38; 72 hours of drug exposure at 37° C. under 5% CO2
[1] = 72 hours of drug exposure at 37° C. under 5% CO2

Structure (SMILES)	IC50 (MX-1; Homo sapiens, MX1, 72 h) [nM]	IC50 at 72 h (in vitro) [nM]	IC50 (ID-8; Mus musculus, ID8, 72 h) [nM]	IC50 (WI-38) [nM]	IC50 (MX-1; [1]) [nM]	IC50 (ID-8; [1]) [nM]
CC(=O)O[C@H]1C(=O)[C@@]2(C)[C@H]([C@H](OC(=O)c3ccccc3)[C@]3(O)C[C@H](OC(=O)[C@H](O)[C@@H](NC(=O)c4ccccc4)c4ccccc4)C(C)=C1C3(C)C)[C@]1(OC(C)=O)CO[C@@H]1C[C@@H]2O [Paclitaxel]	3.83	175	21.2	–	–	–
CC(=O)O[C@@]12CO[C@@H]1C[C@H](O)[C@@]1(C)C(=O)[C@H](OC(=O)C3CC3)C3=C(C)[C@@H](OC(=O)[C@H](O)[C@H](C=C(C)C)NC(=O)OC(C)(C)C)C[C@@](O)([C@@H](OC(=O)c4ccccc4)[C@H]21)C3(C)C [SB-T-1214]	–	–	–	4.14	2.9	1.89
